{"source": "paper PMC12865225", "about": "(Clinical and Translational Science, 2026)", "type_in_all_cases": "cell-based", "key": {"OATP1B1 [1]": {"target": "T1, OATP1B1 (Homo sapiens, UniProt Q9Y6L6)", "T1 construct": "expressed in transfected cells; host or cells: HEK293 (recombinant baculovirus-mediated transduction)", "T1 sequence (Q9Y6L6 1-691)": "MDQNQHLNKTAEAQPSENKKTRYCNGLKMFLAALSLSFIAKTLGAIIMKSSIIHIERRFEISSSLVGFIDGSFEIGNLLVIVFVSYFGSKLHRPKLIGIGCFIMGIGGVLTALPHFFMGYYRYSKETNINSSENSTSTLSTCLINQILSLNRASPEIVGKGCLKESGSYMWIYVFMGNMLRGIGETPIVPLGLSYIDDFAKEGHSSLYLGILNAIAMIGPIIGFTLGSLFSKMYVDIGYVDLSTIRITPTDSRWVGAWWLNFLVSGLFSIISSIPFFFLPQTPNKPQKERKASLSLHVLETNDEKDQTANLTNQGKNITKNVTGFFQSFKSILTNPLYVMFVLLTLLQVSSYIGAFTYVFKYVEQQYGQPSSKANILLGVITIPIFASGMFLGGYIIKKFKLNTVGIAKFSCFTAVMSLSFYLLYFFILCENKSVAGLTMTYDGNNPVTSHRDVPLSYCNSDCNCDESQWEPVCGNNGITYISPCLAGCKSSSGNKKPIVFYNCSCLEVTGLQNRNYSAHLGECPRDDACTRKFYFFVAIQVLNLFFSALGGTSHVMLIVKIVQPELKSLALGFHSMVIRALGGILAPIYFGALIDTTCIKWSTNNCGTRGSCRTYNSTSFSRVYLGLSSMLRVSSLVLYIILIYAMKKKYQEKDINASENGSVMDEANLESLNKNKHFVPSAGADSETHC", "experiment": "OATP1B1 inhibition, rosuvastatin uptake into transporter-expressing HEK293 cells", "conditions": "for IC50: IC50 (95% CI), μM OATP1B1, 2.5 μM rosuvastatin, 2 min, 30 min preincubation; for Calculated R-value OATP1B1: R = 1 + (I in,max,u/IC50), FDA cut-off ≥ 1.1", "method": "(§1) The human transporters OATP1B1, OATP1B3, OATP2B1, and OAT1‐OAT4 and a negative control protein (enhanced yellow fluorescent protein, eYFP) were transiently expressed in human embryonic kidney 293 (HEK293) cells by recombinant baculovirus‐mediated transduction. Baculoviruses carrying human genes for the transporters were prepared as reported previously. HEK293 cells were cultured in DMEM containing 10% fetal bovine serum at 37°C and 5% CO2 and passaged two to three times per week. For the transport studies, 0.05 × 10^6 cells for 48‐well plates (OATPs) or 0.06 × 10^6 cells for 24‐well plates (OATs) were seeded onto cell‐culture treated well plates coated with poly‐D‐lysine. After 1 day, cells were transduced to produce recombinant proteins by changing media to DMEM containing 30 μL (48‐well plates) or 60 μL (24‐well plates) of recombinant baculovirus and 3 mM (OATs) or 5 mM (OATPs) sodium butyrate in a total media volume of 500 μL. The cells were cultured for a further 2 days before the transport assays.\nFor the transport studies, media were removed and cells were washed once with warm transport uptake buffer (TP‐buffer—pH 7.4 HBSS with 25 mM HEPES and 4 mM sodium bicarbonate). Each experiment included triplicate (OATP) or duplicate (OAT) samples for every test condition. The uptake was started by removing liquid from wells and applying warm TP‐buffer (200 μL for 24‐well plates or 125 μL for 48‐well plates) containing a test compound to cells. Transport assays were terminated after a pre‐specified incubation time (reported in figure legends) by removing substrate solution and washing cells three times with cold TP‐buffer (300 μL for 48‐well plates and 400 μL for 24‐well plates). For the liquid chromatography mass spectrometry (LC–MS) analysis, compounds were extracted from cells with 125 μL (48‐well plates) or 250 μL (24‐well plates) of an ultrapure‐water solution containing 75% methanol and 0.1% formic acid, shaking at 250 RPM for 30 min. […] Samples were transferred to well plates, centrifuged at 3000 g for 30 min, and transferred to a new well plate for the analysis.\n(§2) In the OATP inhibition assays, inhibitors in warm TP‐buffer were directly applied to cells after media removal, followed by a 30‐min preincubation step in the presence of inhibitors. […] OAT1 and OAT3 cells were lysed with 200 μL of 1 M sodium hydroxide for 10 min, and 150 μL of these samples were transferred to a black well plate for fluorescein quantification. […]\n(§3) For the inhibition data analysis, the average of measured concentrations in the control cells was subtracted from the average of measured concentrations in transporter‐expressing cells for each inhibitor concentration and then normalized to the vehicle sample that represents 100% transport activity. […]"}, "OAT1": {"test_system": "T2, OAT1", "T2 construct": "expressed in transfected cells; host or cells: HEK293 (recombinant baculovirus-mediated transduction)", "experiment": "OAT1 inhibition, fluorescein uptake into HEK293 cells", "conditions": "human, HEK293 cells transiently expressing OAT1, pH 7.4, probe fluorescein 5 µM; 200 μM inhibitor, 5 μM fluorescein; read-out: inhibition of fluorescein transport into OAT1-expressing cells", "method": "as §1, with “After 1 day, cells were transduced to produce recombinant proteins by changing media to DMEM containing 30 μL (48‐well plates) or 60 μL (24‐well plates) of recombinant baculovirus and 3 mM (OATs) or 5 mM (OATPs) sodium butyrate in a total media volume of 500 μL. The cells were cultured for a further 2 days before the transport assays.” left out\nas §2, §3"}, "OATP1B1 [2]": {"target": "T1, OATP1B1", "experiment": "Irreversible inhibition (reversibility) assay of OATP1B1", "conditions": "for reversibility of OATP1B1 inhibition: wash-out after 15 min preincubation", "method": "were removed and 300 µl of warm TP-buffer was added to each well and incubated for 5 min.\nThe washing was repeated twice , after which the transport assays were conducted in the presence of 1 µM 2′,7′ -dichlorofluorescein for 5 min. The wells that were pre -incubated with […]\nincubated with the vehicle contained three different inhibitor concentrations. After the transport"}, "[3]": {"conditions": "1 µM 2′,7′-dichlorofluorescein, 5 min, read-out: IC50 OATP1B1, inhibitor present only during the transport assay"}, "[4]": {"conditions": "cells washed three times before the transport assay, read-out: IC50 OATP1B1, inhibitor present only during the preincubation"}}, "note": "“And” between values parts separate entries of the source, which are not always exact repeats. Identical values can stand only once. Marks after values point to notes of the source that are not given here."}
{"smiles": "Cc1onc(-c2c(F)cccc2Cl)c1C(=O)N[C@@H]1C(=O)N2[C@@H]1SC(C)(C)[C@@H]2C(=O)O", "note": "[Flucloxacillin]", "values": [{"measurement": "IC50", "setting": "OATP1B1 [1]", "result": 31, "unit": "µM"}, {"measurement": "Calculated R-value OATP1B1", "setting": "OATP1B1 [1]", "result": "1.5 ^a"}, {"measurement": "inhibition at 5 min, 200 μM", "setting": "OAT1", "result": "< 50", "unit": "%"}, {"measurement": "IC50", "setting": "OATP1B1 [2]; [3]", "result": 15.6, "unit": "µM"}, {"measurement": "IC50", "setting": "OATP1B1 [2]; [4]", "result": 455, "unit": "µM"}, {"measurement": "reversibility of OATP1B1 inhibition", "setting": "OATP1B1 [2]", "result": "reversible"}]}
{"smiles": "Cc1onc(-c2c(Cl)cccc2Cl)c1C(=O)N[C@@H]1C(=O)N2[C@@H]1SC(C)(C)[C@@H]2C(=O)O", "note": "[Dicloxacillin]", "values": [{"measurement": "IC50", "setting": "OATP1B1 [1]", "result": "3.9 µM and 3.86 µM"}, {"measurement": "Calculated R-value OATP1B1", "setting": "OATP1B1 [1]", "result": "2.4 ^a"}, {"measurement": "inhibition at 5 min, 200 μM", "setting": "OAT1", "result": "< 50", "unit": "%"}, {"measurement": "IC50", "setting": "OATP1B1 [2]; [3]", "result": 4.82, "unit": "µM"}, {"measurement": "IC50", "setting": "OATP1B1 [2]; [4]", "result": 238, "unit": "µM"}, {"measurement": "reversibility of OATP1B1 inhibition", "setting": "OATP1B1 [2]", "result": "reversible"}]}
